Measurements published in patent publication US7122294B2, “Photoacid generators with perfluorinated multifunctional anions” (3M Innovative Properties Company, priority 2003, dated 2006).
Values joined by “and” are separate entries in the source; they are usually repeats but may differ in a detail not shown here. Identical values can stand only once.

How the values were obtained:
[1] = Photo-DSC/DSC cationic curing activity of PAGs in ERL-4221; parameters: PDSC Peak Max / PDSC Induction Time: unit not given here; conditions: for PDSC Energy: ERL-4221, 1.0% PAG, 0.1% ITX, light exposure 5 min at 30° C.; for DSC after PDSC Onset Temp / DSC after PDSC Energy / DSC after PDSC Peak Max / PDSC Induction Time / DSC Only (dark) Energy / DSC Only (dark) Onset Temp / DSC Only (dark) Peak Max / PDSC Peak Max: ERL-4221; for DSC after PDSC Onset Temp: DSC scan 10° C./minute after light exposure; for DSC after PDSC Energy / DSC after PDSC Peak Max: DSC scan after light exposure; for PDSC Induction Time: light exposure at 30° C.; for DSC Only (dark) Energy / DSC Only (dark) Onset Temp / DSC Only (dark) Peak Max: no prior light exposure; for PDSC Peak Max: time to peak maximum of curing exotherm at 30° C.
Description: (§1) Photo-DSC/DSC: Standard (hermetic) liquid sample pans were used. Sample size was kept in the 6 to 8 mg range. Samples were tested using a Dupont Photo-DSC/DSC instrument (available from DuPont, Wilmington, Del.). The light source was a 200 W Hg lamp that delivered about 60 mw/cm at the sample. Samples were exposed in open pans for 5 minutes to the light source at 30° C. then removed from the instrument, sealed and a standard DSC scan run at 10° C./minute to 300° C. A separate DSC experiment was carried out using a sealed sample pan and no prior light exposure to determine the dark reactivity of these PAGs. Comparison of the DSC traces before and after light exposure enables differentiation between the thermal reactivity of the PAGs (in the dark) and their photochemical activity.
(§2) This example describes photo-DSC/DSC experiments designed to quantitatively compare the relative cationic curing reactivities of PAGs of the present invention containing difunctional fluoroorganic sulfonate anions with related PAGs having identical cations and monofunctional perfluoroalkanesulfonate anions. Relative reactivities were measured in three different cationically polymerizable monomer systems, including two different types of epoxies and one vinyl ether.
(§3) The photo-DSC experiment provides information on the photo-cure speed at 30° C. as measured by the induction time (onset) and time to reach the peak maximum in the curing exotherm. […] The energy released under the curing exotherm is a measure of the extent of cure; larger values mean more cure has taken place during the light exposure. […] Comparison with the DSC traces recorded with no prior light exposure provides a measure of the increase in activity after photoactivation of the PAG.
(§4) General: Stock solutions of three cationically curable monomers were prepared as shown in Table 3 with 0.1% (w/w) isopropylthioxanthone (ITX). Epon 828 is a difunctional glycidyl ether epoxy from Shell, ERL-4221 is a difunctional cycloaliphatic epoxy from Union Carbide and VEX 5015 is a trifunctional vinyl ether from Allied Signal. Because of the low sensitivity of these compositions to room lights, all sample preparation was done with the lab lights on but the hood lights off. All PAGs were formulated at 1.0% by weight in the stock monomer/sensitizer solutions. Into a small aluminum pan was weighed 0.02 g of PAG and 0.04 g of propylene carbonate used to promote dissolution of the PAG in the monomer. The pan was heated briefly on a hot plate set at 100° C. to dissolve the PAG, then 2.0 g the stock monomer/sensitizer solution was added. The solution was briefly heated again on a hot plate set at 100° C. to allow complete mixing of the components, then the solution was allowed to cool to room temperature before using.

[2] = Photo-DSC/DSC cationic curing activity of PAGs in VEX 5015; parameters: PDSC Peak Max / PDSC Induction Time: unit not given here; conditions: for PDSC Energy: VEX 5015, 1.0% PAG, 0.1% ITX, light exposure 5 min at 30° C.; for DSC after PDSC Energy / DSC after PDSC Onset Temp / DSC after PDSC Peak Max / PDSC Induction Time / DSC Only (dark) Onset Temp / PDSC Peak Max: VEX 5015; for DSC after PDSC Energy / DSC after PDSC Onset Temp / DSC after PDSC Peak Max: DSC scan after light exposure; for DSC after PDSC Onset Temp / DSC after PDSC Peak Max / DSC Only (dark) Onset Temp: two values = two exotherms; for PDSC Induction Time: light exposure at 30° C.; for DSC Only (dark) Onset Temp: no prior light exposure; for PDSC Peak Max: time to peak maximum of curing exotherm at 30° C.
Description: as §1, §2, §3, §4

[3] = Photo-DSC/DSC cationic curing activity of PAGs in Epon 828; parameters: PDSC Peak Max / PDSC Induction Time: unit not given here; conditions: for PDSC Energy: Epon 828, 1.0% PAG, 0.1% ITX, light exposure 5 min at 30° C.; for DSC after PDSC Onset Temp / DSC after PDSC Energy / DSC after PDSC Peak Max / PDSC Induction Time / DSC Only (dark) Energy / DSC Only (dark) Onset Temp / DSC Only (dark) Peak Max / PDSC Peak Max: Epon 828; for DSC after PDSC Onset Temp: DSC scan 10° C./minute after light exposure; for DSC after PDSC Energy / DSC after PDSC Peak Max: DSC scan after light exposure; for PDSC Induction Time: light exposure at 30° C.; for DSC Only (dark) Energy / DSC Only (dark) Onset Temp / DSC Only (dark) Peak Max: no prior light exposure; for PDSC Peak Max: time to peak maximum of curing exotherm at 30° C.
Description: as §1, §2, §3, §4

[4] = Bio-elimination screening after a single oral dose; format: in vivo, male Sprague Dawley rats; conditions: for Total F concentration in Liver / Total F concentration in Serum: 30 mg/kg single oral dose; for parent compound recovered in the urine: within the first 28 hours post dose, 19F NMR; for bioelimination compared to PFOS: screenings in rats
Description: The objective of this study was to evaluate the potential for oral absorption, distribution, and serum and liver elimination rates of KO3SCF2CF2CF2CF2SO3K and LiO3SCF2CF2CF2COOLi in male Sprague Dawley rats after a single oral dose. Quantitation of fluorinated salt levels and potential metabolites in serum and liver were performed by total organic fluorine analysis.
21 male Sprague Dawley rats (Harlan), 6–8 weeks in age and weighing approximately 150–250 g were treated with a single dose of the test compound, prepared in propylene glycol (suspension of 6 mg/ml propylene glycol), via oral gavage at either 0 mg/kg (control) or 30 mg/kg body weight (Group 1) (3 animals per dose group per designated treatment period). […] Liver and serum samples were collected for total fluorine analysis on each of those days. All the specimens collected at necropsy were temporarily stored in at −70° C. A complete protocol for this study is available (Strategic Toxicology Lab Protocol Number ST-88). Urine samples were collected and analyzed by ^19F NMR on day one and day four (0–4, 4–24 and 76–100 hrs, respectively) post dose in order to determine the concentration of the respective perfluorinated anion.

[5] = Thermal gravimetric analysis (TGA), onset of thermal decomposition; format: physicochemical; conditions: under nitrogen, ramp 10° C. per minute
Description: TGA was performed on a Perkin-Elmer Instruments TGA Model 7 in an open platinum pan. The onset of thermal decomposition, Td, was taken as the thermal decomposition temperature of the photoacid generators and was determined under nitrogen atmosphere using a temperature ramp of 10° C. per minute. The onset temperature was determined by the intersection of tangents to the low temperature portion of the baseline and the first inflection point in the wt % vs. temperature curve.

| SMILES | PDSC Energy [1] | DSC after PDSC Onset Temp [1] | DSC after PDSC Energy [1] | DSC after PDSC Peak Max [1] | PDSC Induction Time [1] | DSC Only (dark) Energy [1] | DSC Only (dark) Onset Temp [1] | DSC Only (dark) Peak Max [1] | PDSC Peak Max [1] | PDSC Energy [2] | DSC after PDSC Energy [2] | DSC after PDSC Onset Temp [2] | DSC after PDSC Peak Max [2] | PDSC Induction Time [2] | DSC Only (dark) Onset Temp [2] | PDSC Peak Max [2] | PDSC Energy [3] | DSC after PDSC Onset Temp [3] | DSC after PDSC Energy [3] | DSC after PDSC Peak Max [3] | other results |
| --- | --- | --- | --- | --- | --- | --- | --- | --- | --- | --- | --- | --- | --- | --- | --- | --- | --- | --- | --- | --- | --- |
| CC(C)(C)c1ccc([I+]c2ccc(C(C)(C)C)cc2)cc1.O=S(=O)([O-])C(F)(F)C(F)(F)C(F)(F)C(F)(F)F [DTBPI-ONf, reference compound] | 5 J/g | 50 C.° | 577 J/g | 148 °C | 15.7 | 566 J/g | 150 C.° | 192 | 24 | 242 J/g | 31 J/g | 125 C.° | 159 °C | 0.9 | 100, C.° and 155 C.° | 2.8 | 10 J/g | 100 C.° | 558 J/g | 190 °C | PDSC Induction Time [3]: 12.5; DSC Only (dark) Energy [3]: 606 J/g; DSC Only (dark) Onset Temp [3]: 175 C.°; DSC Only (dark) Peak Max [3]: 232 °C; PDSC Peak Max [3]: 21.2 |
| CC(C)(C)c1ccc([I+]c2ccc(C(C)(C)C)cc2)cc1.O=S(=O)([O-])C(F)(F)C(F)(F)C(F)(F)C(F)(F)C(F)(F)C(F)(F)C(F)(F)C(F)(F)F [DTBPI-PFOS, reference compound] | 4 J/g | 65 C.° | 560 J/g | 155 °C | 14.8 | 583 J/g | 150 C.° | 190 | 22.4 | 230 J/g | 24 J/g | 140 C.° | 163 °C | 1.1 | 100, C.° and 160 C.° | 3.2 | 4 J/g | 100 C.° | 566 J/g | 197 °C | PDSC Induction Time [3]: 18.9; DSC Only (dark) Energy [3]: 608 J/g; DSC Only (dark) Onset Temp [3]: 175 C.°; DSC Only (dark) Peak Max [3]: 238 °C; PDSC Peak Max [3]: 28.4 |
| O=S(=O)([O-])C(F)(F)C(F)(F)C(F)(F)C(F)(F)S(=O)(=O)[O-].[K+].[K+] [KO3SCF2CF2CF2CF2SO3K, KO3S(CF2)4SO3K] | – | – | – | – | – | – | – | – | – | – | – | – | – | – | – | – | – | – | – | – | Total F concentration in Liver ([4]; rat, Day 0): ND (ND = not detectable within limits of test (0.3 ppm)); Total F concentration in Serum ([4]; rat, Day 0): (ND) (ND = not detectable within limits of test (0.3 ppm)); Total F concentration in Liver ([4]; rat, Day 1): 0.6 ppm; Total F concentration in Serum ([4]; rat, Day 1): (ND) (ND = not detectable within limits of test (0.3 ppm)); Total F concentration in Liver ([4]; rat, Day 4): ND (ND = not detectable within limits of test (0.3 ppm)); Total F concentration in Serum ([4]; rat, Day 4): (ND) (ND = not detectable within limits of test (0.3 ppm)); Total F concentration in Liver ([4]; rat, Day 8): ND (ND = not detectable within limits of test (0.3 ppm)); Total F concentration in Serum ([4]; rat, Day 8): (ND) (ND = not detectable within limits of test (0.3 ppm)); Total F concentration in Liver ([4]; rat, Day 14): ND (ND = not detectable within limits of test (0.3 ppm)); Total F concentration in Serum ([4]; rat, Day 14): (ND) (ND = not detectable within limits of test (0.3 ppm)); parent compound recovered in the urine ([4]; rat, single oral dose): 11%; bioelimination compared to PFOS [4]: more readily bioeliminate compared to PFOS |
| O=C(O)C(F)(F)C(F)(F)C(F)(F)S(=O)(=O)O [LiO3SCF2CF2CF2CO2Li, LiO3S(CF2)3CO2Li] | – | – | – | – | – | – | – | – | – | – | – | – | – | – | – | – | – | – | – | – | Total F concentration in Liver ([4]; rat, Day 0): 0.5 ppm; Total F concentration in Serum ([4]; rat, Day 0): (ND) (ND = not detectable within limits of test (0.3 ppm)); Total F concentration in Liver ([4]; rat, Day 1): ND (ND = not detectable within limits of test (0.3 ppm)); Total F concentration in Serum ([4]; rat, Day 1): (ND) (ND = not detectable within limits of test (0.3 ppm)); Total F concentration in Liver ([4]; rat, Day 4): ND (ND = not detectable within limits of test (0.3 ppm)); Total F concentration in Serum ([4]; rat, Day 4): (ND) (ND = not detectable within limits of test (0.3 ppm)); Total F concentration in Liver ([4]; rat, Day 8): ND (ND = not detectable within limits of test (0.3 ppm)); Total F concentration in Serum ([4]; rat, Day 8): (ND) (ND = not detectable within limits of test (0.3 ppm)); Total F concentration in Liver ([4]; rat, Day 14): ND (ND = not detectable within limits of test (0.3 ppm)); Total F concentration in Serum ([4]; rat, Day 14): (ND) (ND = not detectable within limits of test (0.3 ppm)); estimated half life of elimination via the urinary route ([4]; rat, single oral dose): less than 28 hours; parent compound recovered in the urine ([4]; rat, single oral dose): greater than 96%; bioelimination compared to PFOS [4]: more readily bioeliminate compared to PFOS |
| O=S(=O)([O-])C(F)(F)C(F)(F)N(C(F)(F)F)C(F)(F)C(F)(F)S(=O)(=O)[O-].c1ccc([S+](c2ccccc2)c2ccccc2)cc1.c1ccc([S+](c2ccccc2)c2ccccc2)cc1 [PAG-3, [(C6H5)3S^+]2CF3N(CF2CF2SO3^−)2] | – | – | – | – | – | – | – | – | – | – | – | – | – | – | – | – | – | – | – | – | onset of thermal decomposition (TGA) [5]: 411 °C |
